# Measured values taken from PubChem BioAssay AID1963961 (Molecular Pharmacology Branch, DTP, NCI, 2024).
# Test system: K98450-129-R-PDC multicell spheroids, viability
# Test: Anticancer human tumor K98450-129-R-PDC patient-derived colon adenocarcinoma cell line growth inhibition [PI3K]
# Conditions: for IC50: curve of first compound; for viability, T/C: stronger effect = lower value
# Procedure, shortened: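 High-throughput combination screen: PI3K inhibitors crossed with targeted small molecules on complex spheroids of tumor cells, HUVEC and MSCs at 37 degrees C, 5% CO2. Top concentration was at or near clinical Cmax (otherwise 10 microM), with half-log decrements.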
# [1] = second compound 0.00316 µM, first compound 0.0316 µM
# [2] = second compound 0.00316 µM, first compound 0.1 µM
# [3] = second compound 0.00316 µM, first compound 0.316 µM
# [4] = second compound 0.00316 µM, first compound 1 µM
# [5] = second compound 0.00316 µM, first compound 3.16 µM
# [6] = second compound 0.00316 µM, first compound 10 µM
# [7] = second compound 0.01 µM, first compound 0.0316 µM
# [8] = second compound 0.01 µM, first compound 0.1 µM
# [9] = second compound 0.01 µM, first compound 0.316 µM
# [10] = second compound 0.01 µM, first compound 1 µM
# [11] = second compound 0.01 µM, first compound 3.16 µM
# [12] = second compound 0.01 µM, first compound 10 µM
# [13] = second compound 0.0316 µM, first compound 0.0316 µM
# [14] = second compound 0.0316 µM, first compound 0.1 µM
# [15] = second compound 0.0316 µM, first compound 0.316 µM
# [16] = second compound 0.0316 µM, first compound 1 µM
# [17] = second compound 0.0316 µM, first compound 3.16 µM
# [18] = second compound 0.0316 µM, first compound 10 µM
# [19] = second compound 0.1 µM, first compound 0.0316 µM
# [20] = second compound 0.1 µM, first compound 0.1 µM
# [21] = second compound 0.1 µM, first compound 0.316 µM
# [22] = second compound 0.1 µM, first compound 1 µM
# [23] = second compound 0.1 µM, first compound 3.16 µM
# [24] = second compound 0.1 µM, first compound 10 µM
# [25] = second compound 0.316 µM, first compound 0.0316 µM
# [26] = second compound 0.316 µM, first compound 0.1 µM
# [27] = second compound 0.316 µM, first compound 0.316 µM
# [28] = second compound 0.316 µM, first compound 1 µM
# [29] = second compound 0.316 µM, first compound 3.16 µM
# [30] = second compound 0.316 µM, first compound 10 µM
# [31] = second compound 1 µM, first compound 0.0316 µM
# [32] = second compound 1 µM, first compound 0.1 µM
# [33] = second compound 1 µM, first compound 0.316 µM
# [34] = second compound 1 µM, first compound 1 µM
# [35] = second compound 1 µM, first compound 3.16 µM
# [36] = second compound 1 µM, first compound 10 µM
# 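Also: spheroids exposed to agents for seven days before read-out.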
smiles,measurement,setting,value
CC(C)NCC(C(=O)N1CCN(c2ncnc3c2C(C)CC3O)CC1)c1ccc(Cl)cc1 (stereo not drawn) + COc1c(OCCCN2CCOCC2)ccc2c3n(c(=NC(=O)c4cnc(N)nc4)nc12)CCN3,IC50,second compound 0.00316 µM,> 10 µM
same,IC50,second compound 0.01 µM,> 10 µM
same,IC50,second compound 0.0316 µM,> 10 µM
same,IC50,second compound 0.1 µM,> 10 µM
same,IC50,second compound 0.316 µM,> 10 µM
same,IC50,second compound 1 µM,> 10 µM
same,"viability, T/C",[1],107%
same,"viability, T/C",[2],95.9%
same,"viability, T/C",[3],115%
same,"viability, T/C",[4],99%
same,"viability, T/C",[5],97.4%
same,"viability, T/C",[6],89.8%
same,"viability, T/C",[7],111%
same,"viability, T/C",[8],106%
same,"viability, T/C",[9],99.3%
same,"viability, T/C",[10],98.8%
same,"viability, T/C",[11],90.6%
same,"viability, T/C",[12],93.3%
same,"viability, T/C",[13],94%
same,"viability, T/C",[14],114%
same,"viability, T/C",[15],88.4%
same,"viability, T/C",[16],95.1%
same,"viability, T/C",[17],89.8%
same,"viability, T/C",[18],86.2%
same,"viability, T/C",[19],79%
same,"viability, T/C",[20],66.4%
same,"viability, T/C",[21],67%
same,"viability, T/C",[22],73.7%
same,"viability, T/C",[23],95.4%
same,"viability, T/C",[24],82.9%
same,"viability, T/C",[25],69.5%
same,"viability, T/C",[26],73.8%
same,"viability, T/C",[27],58.7%
same,"viability, T/C",[28],65.2%
same,"viability, T/C",[29],68.9%
same,"viability, T/C",[30],66.3%
same,"viability, T/C",[31],54.1%
same,"viability, T/C",[32],49.3%
same,"viability, T/C",[33],55.6%
same,"viability, T/C",[34],45.2%
same,"viability, T/C",[35],59.7%
same,"viability, T/C",[36],47.5%
CCN1CCN(Cc2ccc(Nc3ncc(F)c(-c4cc(F)c5nc(C)n(C(C)C)c5c4)n3)nc2)CC1 + COc1c(OCCCN2CCOCC2)ccc2c3n(c(=NC(=O)c4cnc(N)nc4)nc12)CCN3,IC50,second compound 0.00316 µM,> 1 µM
same,IC50,second compound 0.01 µM,> 1 µM
same,IC50,second compound 0.0316 µM,> 1 µM
same,IC50,second compound 0.1 µM,> 1 µM
same,IC50,second compound 0.316 µM,> 1 µM
same,IC50,second compound 1 µM,< 0.00316 µM
same,"viability, T/C","second compound 0.00316 µM, first compound 0.00316 µM",99.6%
same,"viability, T/C","second compound 0.00316 µM, first compound 0.01 µM",108%
same,"viability, T/C",[1],88.9%
same,"viability, T/C",[2],86.9%
same,"viability, T/C",[3],87.5%
same,"viability, T/C",[4],79.4%
same,"viability, T/C","second compound 0.01 µM, first compound 0.00316 µM",117%
same,"viability, T/C","second compound 0.01 µM, first compound 0.01 µM",93.7%
same,"viability, T/C",[7],81.6%
same,"viability, T/C",[8],94%
same,"viability, T/C",[9],71.1%
same,"viability, T/C",[10],75.8%
same,"viability, T/C","second compound 0.0316 µM, first compound 0.00316 µM",78.3%
same,"viability, T/C","second compound 0.0316 µM, first compound 0.01 µM",64.5%
same,"viability, T/C",[13],81.9%
same,"viability, T/C",[14],66.8%
same,"viability, T/C",[15],72.8%
same,"viability, T/C",[16],110%
same,"viability, T/C","second compound 0.1 µM, first compound 0.00316 µM",71.6%
same,"viability, T/C","second compound 0.1 µM, first compound 0.01 µM",64.9%
same,"viability, T/C",[19],85.6%
same,"viability, T/C",[20],57.3%
same,"viability, T/C",[21],64.2%
same,"viability, T/C",[22],70.7%
same,"viability, T/C","second compound 0.316 µM, first compound 0.00316 µM",53.1%
same,"viability, T/C","second compound 0.316 µM, first compound 0.01 µM",64.6%
same,"viability, T/C",[25],57.3%
same,"viability, T/C",[26],46.2%
same,"viability, T/C",[27],64.7%
same,"viability, T/C",[28],60%
same,"viability, T/C","second compound 1 µM, first compound 0.00316 µM",56%
same,"viability, T/C","second compound 1 µM, first compound 0.01 µM",45%
same,"viability, T/C",[31],45.8%
same,"viability, T/C",[32],47.8%
same,"viability, T/C",[33],59.8%
same,"viability, T/C",[34],65.2%
Cn1ncc(Cl)c1-c1cc(C(=O)NC(CN)Cc2cccc(F)c2)sc1Cl (stereo not drawn) + COc1c(OCCCN2CCOCC2)ccc2c3n(c(=NC(=O)c4cnc(N)nc4)nc12)CCN3,IC50,second compound 0.00316 µM,> 10 µM
same,IC50,second compound 0.01 µM,> 10 µM
same,IC50,second compound 0.0316 µM,> 10 µM
same,IC50,second compound 0.1 µM,> 10 µM
same,IC50,second compound 0.316 µM,> 10 µM
same,IC50,second compound 1 µM,> 10 µM
same,"viability, T/C",[1],112%
same,"viability, T/C",[2],101%
same,"viability, T/C",[3],99.2%
same,"viability, T/C",[4],98.8%
same,"viability, T/C",[5],89.2%
same,"viability, T/C",[6],63.9%
same,"viability, T/C",[7],117%
same,"viability, T/C",[8],103%
same,"viability, T/C",[9],103%
same,"viability, T/C",[10],83.5%
same,"viability, T/C",[11],78.9%
same,"viability, T/C",[12],76%
same,"viability, T/C",[13],86.9%
same,"viability, T/C",[14],99.8%
same,"viability, T/C",[15],90.9%
same,"viability, T/C",[16],78.9%
same,"viability, T/C",[17],89%
same,"viability, T/C",[18],58.5%
same,"viability, T/C",[19],72.4%
same,"viability, T/C",[20],70.4%
same,"viability, T/C",[21],78.9%
same,"viability, T/C",[22],83.3%
same,"viability, T/C",[23],69.5%
same,"viability, T/C",[24],70.3%
same,"viability, T/C",[25],64.6%
same,"viability, T/C",[26],68.4%
same,"viability, T/C",[27],70.6%
same,"viability, T/C",[28],47.8%
same,"viability, T/C",[29],80.4%
same,"viability, T/C",[30],51%
same,"viability, T/C",[31],52.4%
same,"viability, T/C",[32],71.5%
same,"viability, T/C",[33],48.7%
same,"viability, T/C",[34],65.7%
same,"viability, T/C",[35],59.8%
same,"viability, T/C",[36],41.7%
Cn1nccc1Nc1nccc(-c2ccn(C(CO)c3ccc(Cl)c(F)c3)c(=O)c2)n1 (stereo not drawn) + COc1c(OCCCN2CCOCC2)ccc2c3n(c(=NC(=O)c4cnc(N)nc4)nc12)CCN3,IC50,second compound 0.00316 µM,> 10 µM
same,IC50,second compound 0.01 µM,> 10 µM
same,IC50,second compound 0.0316 µM,> 10 µM
same,IC50,second compound 0.1 µM,7.85 µM
same,IC50,second compound 0.316 µM,8.33 µM
same,IC50,second compound 1 µM,0.272 µM
same,"viability, T/C",[1],101%
same,"viability, T/C",[2],97.7%
same,"viability, T/C",[3],89.3%
same,"viability, T/C",[4],88.5%
same,"viability, T/C",[5],93.6%
same,"viability, T/C",[6],69.2%
same,"viability, T/C",[7],99.1%
same,"viability, T/C",[8],82%
same,"viability, T/C",[9],79.7%
same,"viability, T/C",[10],79.9%
same,"viability, T/C",[11],77.4%
same,"viability, T/C",[12],95.5%
same,"viability, T/C",[13],80.7%
same,"viability, T/C",[14],88.6%
same,"viability, T/C",[15],74.8%
same,"viability, T/C",[16],94.6%
same,"viability, T/C",[17],77.3%
same,"viability, T/C",[18],63.1%
same,"viability, T/C",[19],65.6%
same,"viability, T/C",[20],74.8%
same,"viability, T/C",[21],73.3%
same,"viability, T/C",[22],75.3%
same,"viability, T/C",[23],70.2%
same,"viability, T/C",[24],44.5%
same,"viability, T/C",[25],63.2%
same,"viability, T/C",[26],53.7%
same,"viability, T/C",[27],55.6%
same,"viability, T/C",[28],61.9%
same,"viability, T/C",[29],59.7%
same,"viability, T/C",[30],40.8%
same,"viability, T/C",[31],54.7%
same,"viability, T/C",[32],61.5%
same,"viability, T/C",[33],43.2%
same,"viability, T/C",[34],43.9%
same,"viability, T/C",[35],33.4%
same,"viability, T/C",[36],20.9%
